From PubChem BioAssay AID1919013 (Molecular Pharmacology Branch, DTP, NCI, 2023)

Tested on: LG0703-F498-PDC complex spheroid growth
Assay: Anticancer human tumor LG0703-F498-PDC patient-derived lung adenocarcinoma cell line growth inhibition [AhR]
Details: for IC50: curve of first compound; for viability, T/C: stronger effect = lower value
How it was run: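 Agents were dosed in half-log steps down from roughly clinical Cmax, or from 10 microM where Cmax was unknown, alone and with AhR antagonists. Read-out: percent test/control growth of tumor spheroids containing HUVEC and MSC stromal cells.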

[1] = second compound 0.1 µM, first compound 0.0316 µM
[2] = second compound 0.1 µM, first compound 0.1 µM
[3] = second compound 0.1 µM, first compound 0.316 µM
[4] = second compound 0.1 µM, first compound 1 µM
[5] = second compound 0.1 µM, first compound 3.16 µM
[6] = second compound 0.1 µM, first compound 10 µM
[7] = second compound 0.316 µM, first compound 0.0316 µM
[8] = second compound 0.316 µM, first compound 0.1 µM
[9] = second compound 0.316 µM, first compound 0.316 µM
[10] = second compound 0.316 µM, first compound 1 µM
[11] = second compound 0.316 µM, first compound 3.16 µM
[12] = second compound 0.316 µM, first compound 10 µM
[13] = second compound 1 µM, first compound 0.0316 µM
[14] = second compound 1 µM, first compound 0.1 µM
[15] = second compound 1 µM, first compound 0.316 µM
[16] = second compound 1 µM, first compound 1 µM
[17] = second compound 1 µM, first compound 3.16 µM
[18] = second compound 1 µM, first compound 10 µM
[19] = second compound 3.16 µM, first compound 0.0316 µM
[20] = second compound 3.16 µM, first compound 0.1 µM
[21] = second compound 3.16 µM, first compound 0.316 µM
[22] = second compound 3.16 µM, first compound 1 µM
[23] = second compound 3.16 µM, first compound 3.16 µM
[24] = second compound 3.16 µM, first compound 10 µM
[25] = second compound 10 µM, first compound 0.0316 µM
[26] = second compound 10 µM, first compound 0.1 µM
[27] = second compound 10 µM, first compound 0.316 µM
[28] = second compound 10 µM, first compound 1 µM
[29] = second compound 10 µM, first compound 3.16 µM
[30] = second compound 10 µM, first compound 10 µM
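Note: luminescence taken as a proxy for viable cell amount.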
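Throughout, for viability, T/C: percent of DMSO vehicle control where 100% means growth equal to vehicle.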

CC1(C)CCC(CN2CCN(c3ccc(C(=O)NS(=O)(=O)c4ccc(NCC5CCOCC5)c([N+](=O)[O-])c4)c(Oc4cnc5[nH]ccc5c4)c3)CC2)=C(c2ccc(Cl)cc2)C1 + CC(CO)NC(=O)c1cc(-c2ccc(Cl)cc2)nn(-c2cnn(C)c2)c1=O showed an IC50 (second compound 0.1 µM) of 5.91 µM, an IC50 (second compound 0.316 µM) of 5.65 µM and an IC50 (second compound 1 µM) of 5.8 µM. It also gave an IC50 (second compound 3.16 µM) of 5.48 µM, an IC50 (second compound 10 µM) of 5.13 µM and a viability, T/C [1] of 92.1%. For the same compound, the viability, T/C [2] was 99.7%, the viability, T/C [3] was 89.5% and the viability, T/C [4] was 85.6%. For the same compound, the viability, T/C [5] was 87.4%, the viability, T/C [6] was 18.4% and the viability, T/C [7] was 106%. The viability, T/C [8] was 108%, the viability, T/C [9] was 86.8% and the viability, T/C [10] was 82.4%. It also gave a viability, T/C [11] of 86%, a viability, T/C [12] of 20.5% and a viability, T/C [13] of 85.6%. It also gave a viability, T/C [14] of 97.4%, a viability, T/C [15] of 90.3% and a viability, T/C [16] of 92.7%. It also gave a viability, T/C [17] of 85.4%, a viability, T/C [18] of 18.2% and a viability, T/C [19] of 82.2%. It also gave a viability, T/C [20] of 80.1%, a viability, T/C [21] of 90.1% and a viability, T/C [22] of 90.2%. For the same compound, the viability, T/C [23] was 78.7%, the viability, T/C [24] was 18.3% and the viability, T/C [25] was 75.8%. It also gave a viability, T/C [26] of 80.1%, a viability, T/C [27] of 77.2% and a viability, T/C [28] of 78.2%. The viability, T/C [29] was 73.2% and the viability, T/C [30] was 17.9%.
For CCN(c1cc(-c2ccc(CN3CCOCC3)cc2)cc(C(=O)NCc2c(C)cc(C)[nH]c2=O)c1C)C1CCOCC1 + CC(CO)NC(=O)c1cc(-c2ccc(Cl)cc2)nn(-c2cnn(C)c2)c1=O, the IC50 (second compound 0.1 µM) was over 3 µM, the IC50 (second compound 0.316 µM) was over 3 µM and the IC50 (second compound 1 µM) was over 3 µM. It also gave an IC50 (second compound 3.16 µM) of over 3 µM, an IC50 (second compound 10 µM) of over 3 µM and a viability, T/C (second compound 0.1 µM, first compound 0.00949 µM) of 98.2%. For the same compound, the viability, T/C (second compound 0.1 µM, first compound 0.03 µM) was 100%, the viability, T/C (second compound 0.1 µM, first compound 0.0949 µM) was 93.9% and the viability, T/C (second compound 0.1 µM, first compound 0.3 µM) was 96.1%. The viability, T/C (second compound 0.1 µM, first compound 0.949 µM) was 95.7%, the viability, T/C (second compound 0.1 µM, first compound 3 µM) was 94.6% and the viability, T/C (second compound 0.316 µM, first compound 0.00949 µM) was 105%. For the same compound, the viability, T/C (second compound 0.316 µM, first compound 0.03 µM) was 112%, the viability, T/C (second compound 0.316 µM, first compound 0.0949 µM) was 101% and the viability, T/C (second compound 0.316 µM, first compound 0.3 µM) was 92.9%. For the same compound, the viability, T/C (second compound 0.316 µM, first compound 0.949 µM) was 114%, the viability, T/C (second compound 0.316 µM, first compound 3 µM) was 105% and the viability, T/C (second compound 1 µM, first compound 0.00949 µM) was 91.1%. For the same compound, the viability, T/C (second compound 1 µM, first compound 0.03 µM) was 95.7%, the viability, T/C (second compound 1 µM, first compound 0.0949 µM) was 99% and the viability, T/C (second compound 1 µM, first compound 0.3 µM) was 90%. For the same compound, the viability, T/C (second compound 1 µM, first compound 0.949 µM) was 92.9%, the viability, T/C (second compound 1 µM, first compound 3 µM) was 103% and the viability, T/C (second compound 3.16 µM, first compound 0.00949 µM) was 85.1%. It also gave a viability, T/C (second compound 3.16 µM, first compound 0.03 µM) of 95.3%, a viability, T/C (second compound 3.16 µM, first compound 0.0949 µM) of 96.7% and a viability, T/C (second compound 3.16 µM, first compound 0.3 µM) of 81.2%. It also gave a viability, T/C (second compound 3.16 µM, first compound 0.949 µM) of 84.8%, a viability, T/C (second compound 3.16 µM, first compound 3 µM) of 102% and a viability, T/C (second compound 10 µM, first compound 0.00949 µM) of 86%. For the same compound, the viability, T/C (second compound 10 µM, first compound 0.03 µM) was 97.1%, the viability, T/C (second compound 10 µM, first compound 0.0949 µM) was 94.2% and the viability, T/C (second compound 10 µM, first compound 0.3 µM) was 93.8%. The viability, T/C (second compound 10 µM, first compound 0.949 µM) was 78.3% and the viability, T/C (second compound 10 µM, first compound 3 µM) was 96.3%.
Compound COc1cc(Nc2ncc3c(n2)-c2ccc(Cl)cc2C(c2c(F)cccc2OC)=NC3)ccc1C(=O)O + CC(CO)NC(=O)c1cc(-c2ccc(Cl)cc2)nn(-c2cnn(C)c2)c1=O has an IC50 (second compound 0.1 µM) of 6.88 µM, an IC50 (second compound 0.316 µM) of 8.34 µM and an IC50 (second compound 1 µM) of 5.11 µM. The IC50 (second compound 3.16 µM) was 4.36 µM, the IC50 (second compound 10 µM) was 3.25 µM and the viability, T/C [1] was 87.2%. The viability, T/C [2] was 88.2%, the viability, T/C [3] was 78.5% and the viability, T/C [4] was 71%. It also gave a viability, T/C [5] of 61.7%, a viability, T/C [6] of 44.4% and a viability, T/C [7] of 94.9%. It also gave a viability, T/C [8] of 79.2%, a viability, T/C [9] of 78.9% and a viability, T/C [10] of 70.2%. It also gave a viability, T/C [11] of 56.3%, a viability, T/C [12] of 48.8% and a viability, T/C [13] of 91.6%. The viability, T/C [14] was 96.2%, the viability, T/C [15] was 75.1% and the viability, T/C [16] was 68.2%. It also gave a viability, T/C [17] of 56.4%, a viability, T/C [18] of 42.7% and a viability, T/C [19] of 91.6%. For the same compound, the viability, T/C [20] was 75.2%, the viability, T/C [21] was 70.7% and the viability, T/C [22] was 63.9%. For the same compound, the viability, T/C [23] was 50.3%, the viability, T/C [24] was 44.5% and the viability, T/C [25] was 92%. The viability, T/C [26] was 77.4%, the viability, T/C [27] was 65% and the viability, T/C [28] was 65%. It also gave a viability, T/C [29] of 52.7% and a viability, T/C [30] of 37.6%.
With Cn1ncnc1C1c2n[nH]c(=O)c3cc(F)cc(c23)NC1c1ccc(F)cc1 (stereo not given) + CC(CO)NC(=O)c1cc(-c2ccc(Cl)cc2)nn(-c2cnn(C)c2)c1=O the IC50 (second compound 0.1 µM) was over 0.1 µM, the IC50 (second compound 0.316 µM) was over 0.1 µM and the IC50 (second compound 1 µM) was over 0.1 µM. The IC50 (second compound 3.16 µM) was over 0.1 µM, the IC50 (second compound 10 µM) was over 0.1 µM and the viability, T/C (second compound 0.1 µM, first compound 0.000316 µM) was 89.3%. For the same compound, the viability, T/C (second compound 0.1 µM, first compound 0.001 µM) was 86.6%, the viability, T/C (second compound 0.1 µM, first compound 0.00316 µM) was 99.1% and the viability, T/C (second compound 0.1 µM, first compound 0.01 µM) was 79.5%. For the same compound, the viability, T/C [1] was 90.2%, the viability, T/C [2] was 80.9% and the viability, T/C (second compound 0.316 µM, first compound 0.000316 µM) was 79.2%. For the same compound, the viability, T/C (second compound 0.316 µM, first compound 0.001 µM) was 95.7%, the viability, T/C (second compound 0.316 µM, first compound 0.00316 µM) was 83.3% and the viability, T/C (second compound 0.316 µM, first compound 0.01 µM) was 72.6%. For the same compound, the viability, T/C [7] was 83.1%, the viability, T/C [8] was 71.5% and the viability, T/C (second compound 1 µM, first compound 0.000316 µM) was 76.7%. It also gave a viability, T/C (second compound 1 µM, first compound 0.001 µM) of 91.2%, a viability, T/C (second compound 1 µM, first compound 0.00316 µM) of 88.7% and a viability, T/C (second compound 1 µM, first compound 0.01 µM) of 73.4%. It also gave a viability, T/C [13] of 75.1%, a viability, T/C [14] of 74.6% and a viability, T/C (second compound 3.16 µM, first compound 0.000316 µM) of 80.8%. It also gave a viability, T/C (second compound 3.16 µM, first compound 0.001 µM) of 83.7%, a viability, T/C (second compound 3.16 µM, first compound 0.00316 µM) of 80.4% and a viability, T/C (second compound 3.16 µM, first compound 0.01 µM) of 73.9%. The viability, T/C [19] was 71.8%, the viability, T/C [20] was 70.2% and the viability, T/C (second compound 10 µM, first compound 0.000316 µM) was 69.6%. It also gave a viability, T/C (second compound 10 µM, first compound 0.001 µM) of 74.3%, a viability, T/C (second compound 10 µM, first compound 0.00316 µM) of 79.7% and a viability, T/C (second compound 10 µM, first compound 0.01 µM) of 73.6%. It also gave a viability, T/C [25] of 76.8% and a viability, T/C [26] of 66.8%.
NS(=O)(=O)OCC1CC(n2ccc3c(NC4CCc5ccccc54)ncnc32)CC1O (stereo not given) + CC(CO)NC(=O)c1cc(-c2ccc(Cl)cc2)nn(-c2cnn(C)c2)c1=O showed an IC50 (second compound 0.1 µM) of 3.6 µM, an IC50 (second compound 0.316 µM) of 1.47 µM and an IC50 (second compound 1 µM) of 0.882 µM. The IC50 (second compound 3.16 µM) was 0.617 µM, the IC50 (second compound 10 µM) was 0.638 µM and the viability, T/C [1] was 94.1%. It also gave a viability, T/C [2] of 99.9%, a viability, T/C [3] of 81.9% and a viability, T/C [4] of 71%. For the same compound, the viability, T/C [5] was 51.7%, the viability, T/C [6] was 38.3% and the viability, T/C [7] was 96.4%. For the same compound, the viability, T/C [8] was 88.9%, the viability, T/C [9] was 78.9% and the viability, T/C [10] was 51.7%. It also gave a viability, T/C [11] of 45%, a viability, T/C [12] of 36.2% and a viability, T/C [13] of 89%. The viability, T/C [14] was 76.7%, the viability, T/C [15] was 65.4% and the viability, T/C [16] was 48.6%. The viability, T/C [17] was 36.8%, the viability, T/C [18] was 38.5% and the viability, T/C [19] was 78.4%. The viability, T/C [20] was 73.5%, the viability, T/C [21] was 60.8% and the viability, T/C [22] was 42.5%. The viability, T/C [23] was 34.3%, the viability, T/C [24] was 34.2% and the viability, T/C [25] was 78.5%. For the same compound, the viability, T/C [26] was 72.6%, the viability, T/C [27] was 60.5% and the viability, T/C [28] was 43.4%. The viability, T/C [29] was 34.1% and the viability, T/C [30] was 31.9%.
